This is an account of results in PMC4549746, “Zearalenone in the Intestinal Tissues of Immature Gilts Exposed per os to Mycotoxins” (Toxins, 2015).

Data set [1] is described as follows: Average daily gains and feed conversion of gilts during 42-day per os exposure. Format: in vivo. The procedure:
The animals were divided into an experimental group (E, n = 18) and a control group (C, n = 21). Group E animals were orally administered ZEN at 40 μg/kg BW. Group C pigs were fed a placebo. The animals were fed complete diets in a restricted feeding regimen (Table 1). The daily dose of ZEN (40 µg/kg BW) was administered to each animal individually, which corresponds to exposure to 957–1014 µg ZEN/kg of a complete diet, depending on daily feed intake. Zearalenone was biosynthesized, purified and standardized by the Department of Chemistry of the Poznań University of Life Sciences. The experiment covered a period of 42 days. The mycotoxin was administered per os daily, in gelatine capsules before the morning feeding. The ZEN dose was adjusted to the body weight of the experimental animals. The mycotoxin was administered in capsules to prevent problems associated with uneven feed intake. Mycotoxin samples were diluted in 300 μL of 96% ethyl alcohol (96% ethyl alcohol, SWW 2442-90, Polskie Odczynniki Chemiczne SA, Gliwice, Poland) to the required dose level (based on body weight). Final solutions were stored at room temperature for 12 h to evaporate the solvent. The animals were weighed every 7 days to update mycotoxin doses for each gilt. Three animals from the experimental group and the control group each were sacrificed on Days 1, 7, 14, 21, 28, 35 and 42 (a total of 6 gilts in each week of exposure), excluding day 1, when only 3 control group animals were scarified. Every week, tissue samples were collected from the porcine gastrointestinal tract (duodenum, first and middle sections, jejunum, ileum, cecum, ascending colon, transverse colon, descending colon, middle section, and the liver, left lobe). Tissue samples were collected from the whole intestinal cross-sections.

On the set-up of data set [2]: method as in PMID 15972077. The following applies: animal feed naturally contaminated with ZEN and α-ZEL; cited from earlier work.
The mark [3] stands for this setting: Group E, ZEN 40 μg/kg BW daily per os, throughout the experiment (42 days).

Regarding `C[C@H]1CCCC(=O)CCC/C=C/c2cc(O)cc(O)c2C(=O)O1` [ZEN, zearalenone], the “differences in average daily gains between groups” value in data set [1] (Group E (ZEN 40 μg/kg BW daily per os) vs Group C (placebo)) was “No significant differences”. For the same compound, in data set [1] (setting [3]), the average daily gains was 602 g and the “feed per kg of BW gain” value is reported as 2.61 kg feed per kg of BW gain. The “absorbed from the duodenum” value in data set [2] is reported as 65%.
